In the Kinase Knowledgebase extract (Sharma et al. 2016) one finds Ki data, which are given here for 46 compounds.

In this assay the target is PIK3CG (human) (UniProt P48736). Put plainly: Assessment of PIK3CG Kinase Activity.
PIK3CG (human), sequence (P48736 whole entry, looked up): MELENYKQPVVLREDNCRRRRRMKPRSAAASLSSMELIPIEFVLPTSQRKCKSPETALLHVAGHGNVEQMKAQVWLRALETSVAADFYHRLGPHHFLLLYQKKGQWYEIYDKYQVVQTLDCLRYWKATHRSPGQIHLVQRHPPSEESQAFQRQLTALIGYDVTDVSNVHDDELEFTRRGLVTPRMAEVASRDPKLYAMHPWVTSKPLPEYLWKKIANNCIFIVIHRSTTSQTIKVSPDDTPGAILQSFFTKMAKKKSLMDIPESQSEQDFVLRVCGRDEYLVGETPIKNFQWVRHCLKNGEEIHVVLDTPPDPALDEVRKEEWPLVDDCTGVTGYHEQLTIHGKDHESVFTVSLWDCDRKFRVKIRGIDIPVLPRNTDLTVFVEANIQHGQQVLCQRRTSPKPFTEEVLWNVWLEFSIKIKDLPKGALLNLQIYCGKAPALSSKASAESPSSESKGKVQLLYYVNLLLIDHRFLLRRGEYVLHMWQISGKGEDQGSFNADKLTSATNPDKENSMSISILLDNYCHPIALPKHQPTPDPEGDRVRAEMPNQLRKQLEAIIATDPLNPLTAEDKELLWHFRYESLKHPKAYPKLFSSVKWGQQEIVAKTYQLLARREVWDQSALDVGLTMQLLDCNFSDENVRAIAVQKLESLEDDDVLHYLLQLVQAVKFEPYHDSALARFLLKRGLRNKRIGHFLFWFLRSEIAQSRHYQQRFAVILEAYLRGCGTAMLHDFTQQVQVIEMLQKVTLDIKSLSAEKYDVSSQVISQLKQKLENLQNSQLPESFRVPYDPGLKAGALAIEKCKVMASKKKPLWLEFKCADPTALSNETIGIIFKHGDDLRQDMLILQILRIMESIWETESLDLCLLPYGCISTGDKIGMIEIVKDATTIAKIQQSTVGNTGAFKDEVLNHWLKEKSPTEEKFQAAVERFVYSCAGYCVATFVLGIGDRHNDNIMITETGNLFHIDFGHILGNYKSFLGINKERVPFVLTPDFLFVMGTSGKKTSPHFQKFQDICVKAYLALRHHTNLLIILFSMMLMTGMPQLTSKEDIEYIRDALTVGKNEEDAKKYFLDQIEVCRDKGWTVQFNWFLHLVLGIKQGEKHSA
Regarding `Cc1nc(NC(=O)NCCOCC2CC2)sc1C#Cc1ccncc1F`, the Ki is less than 50 nM. Next, `Cc1nc(NC(=O)[C@@H]2CCC(=O)N2)sc1C#Cc1ccncc1`: 50 to 250 nM. Then `Cc1nc(NC(=O)NC2COc3ccccc3C2)sc1C#Cc1ccncc1` (stereo unspecified), with 50 to 250 nM; and `CCCCOCCCNC(=O)Nc1nc(C)c(C#Cc2ccncc2)s1`, with less than 50 nM; and `CCn1cnc(CCNC(=O)Nc2nc(C)c(C#Cc3ccncc3)s2)c1Cl`, with less than 50 nM. Then `CCn1cc(CCNC(=O)Nc2nc(C)c(C#Cc3ccncc3)s2)cn1`, with less than 50 nM. Regarding `Cc1nc(NC(=O)CCCC(=O)NCC(F)F)sc1C#Cc1ccncc1`, the Ki was in the range of 50 to 250 nM. Next, `Cc1nc(NC(=O)NCCOCC2CC2)sc1C#Cc1cccc2ncccc12`: less than 50 nM; `Cc1nc(NC(=O)NCCC2CCCCO2)sc1C#Cc1ccncc1` (stereo unspecified): less than 50 nM.

As to `CC(=O)N1CC(C(=O)Nc2nc(C)c(C#Cc3ccncc3)s2)C1`, the Ki was in the range of 50 to 250 nM. Consider `Cc1nc(NC(=O)NC[C@H](C)OCC2CC2)sc1C#Cc1ccc2ncccc2c1`, for which the inhibition constant (Ki) is less than 50 nM.

As for `CC(=O)Nc1nc(C)c(C#Cc2ccsc2)s1`, the inhibition constant (Ki) lay in the range of 50 to 250 nM.

On to `Cc1nc(NC(=O)NCCc2ccncc2)sc1C#Cc1ccncc1`, for which the inhibition constant (Ki) lay in the range of 50 to 250 nM. For the compound `CCc1nc(NC(C)=O)sc1C#Cc1ccncc1`, the Ki fell in the range of 50 to 250 nM.

The compound `COc1cc(C#Cc2sc(NC(=O)NCCOc3ccccn3)nc2C)cnc1OC` returned an inhibitory constant (Ki) of less than 50 nM.

Turning to `Cc1nc(NC(=O)NCCOCC2CC2)sc1C#Cc1ccnc2ccccc12`, the Ki is less than 50 nM. Consider `CC(=O)Nc1ccc(C#Cc2sc(NC(=O)NCCOCC3CC3)nc2C)cn1`, for which the inhibitory constant (Ki) is 50 to 250 nM. Then `COc1cccc(C#Cc2sc(NC(=O)NCCOCC3CC3)nc2C)c1`, with 50 to 250 nM; and `Cc1nc(NC(=O)NCCOc2cccc(Cl)c2)sc1C#Cc1ccncc1`, with less than 50 nM. `COc1cc(C#Cc2sc(NC(=O)NCCOc3ccncc3)nc2C)cnc1OC` yielded a Ki of less than 50 nM. Next, `Cc1nc(NC(=O)NCCC2COCCO2)sc1C#Cc1ccncc1` (stereo unspecified): less than 50 nM; `Cc1nc(NC(=O)NCCC(=O)NC(C)(C)C)sc1C#Cc1ccncc1`: less than 50 nM.

In turn, `COC(=O)CCCC(=O)Nc1nc(C)c(C#Cc2ccncc2)s1` had an inhibition constant (Ki) of 50 to 250 nM. `COc1ccc(C#Cc2sc(NC(=O)NC[C@H](C)C(=O)NC(C)(C)C)nc2C)cn1` yielded a Ki of less than 50 nM. Then `CCCO[C@@H](C)CNC(=O)Nc1nc(C)c(C#Cc2cncc(OC)c2)s1`, with less than 50 nM; and `Cc1nc(NC(=O)NCCOc2ccccc2F)sc1C#Cc1ccncc1`, with less than 50 nM. Next, `Cc1nc(NC(=O)NCCCOCC2CC2)sc1C#Cc1ccncc1`: 50 to 250 nM. Next, `Cc1nc(NC(=O)NCC2Cc3ccccc3O2)sc1C#Cc1ccncc1` (stereo unspecified): less than 50 nM; `Cc1nc(NC(=O)NC[C@H](C)O)sc1C#Cc1ccncc1`: less than 50 nM. `Cc1nc(NC(=O)NC[C@H](C)OCC2CC2)sc1C#Cc1ccc2nccnc2c1` gave an inhibition constant Ki of less than 50 nM.

`CC(=O)Nc1nc(C)c(C#Cc2cccc(C)c2)s1`: the Ki was in the range of 50 to 250 nM. `CCc1cnc(CCNC(=O)Nc2nc(C)c(C#Cc3ccncc3)s2)s1` showed a Ki of less than 50 nM.

On to `Cc1nc(NC(=O)NCCOCC2CC2)sc1C#Cc1cc(F)ncc1Cl`, for which the Ki is less than 50 nM. Then `COc1ccccc1OCCNC(=O)Nc1nc(C)c(C#Cc2ccncc2)s1`, with less than 50 nM; and `Cc1nc(NC(=O)NCCOc2ccccc2)sc1C#Cc1cccnc1`, with less than 50 nM; and `CCn1c(C)nc(CCNC(=O)Nc2nc(C)c(C#Cc3ccncc3)s2)c1Cl`, with less than 50 nM. Consider `Cc1nc(NC(=O)CCCC(=O)NC(C)(C)C)sc1C#Cc1ccncc1`, for which the Ki was 50 to 250 nM. Next, `CCOC(=O)[C@H]1CCC[C@H]1NC(=O)Nc1nc(C)c(C#Cc2ccncc2)s1`: 50 to 250 nM; `CCCOCCOC(=O)Nc1nc(C)c(C#Cc2ccncc2)s1`: less than 50 nM. Then `CC(=O)Nc1nc(C)c(C#Cc2cncn2C)s1`, with 50 to 250 nM; and `Cc1nc(NC(=O)NCCOCC2CC2)sc1C#Cc1cnc2ccccc2c1`, with 50 to 250 nM. Then `Cc1cc(O)nc(CCNC(=O)Nc2nc(C)c(C#Cc3ccncc3)s2)n1`, with 50 to 250 nM; and `Cc1nc(NC(=O)NCCOCC2CC2)sc1C#Cc1ccnc(F)c1`, with less than 50 nM; and `CC(=O)Nc1nc(C)c(C#Cc2sc(NC(=O)NCCOCC3CC3)nc2C)s1`, with 50 to 250 nM.

Regarding `CC(=O)Nc1nc(C)c(C#Cc2ccncc2)s1`, the Ki is less than 50 nM. Next, `COc1ccc(C#Cc2sc(NC(=O)NCCOCC3CC3)nc2C)nc1OC`: less than 50 nM.

The Ki is the dissociation constant of the complex between target and ligand, obtained from inhibition or displacement. The low end stands for a stronger hold on the target, the high end for a looser hold on the target.
